Legend:
[1] = biological target: p38α kinase (Homo sapiens (Human), UniProt Q16539); assay: Inhibition of p38α kinase activity (ADP-Glo kit); assay type: biochemical; details: ATP 50 μM, 27° C. 2.5 hours
Method: The inhibition of p38α kinase activity in vitro was determined by the following method.
The inhibition effect of the compounds of the present invention on p38α kinase activity was determined by the following experimental method:
p38α kinase assay kit (V9591, Promega) was used to assay enzyme activity. 2 μl of enzyme solution (the final concentration of enzyme in the reaction system was 0.5 ng/μL) formulated with reaction buffer (40 mM Tris pH 7.5, 20 mM MgCl2, 0.1 mg/ml BSA), 1 μl of a 3-fold gradient dilution of the compounds dissolved in 5% DMSO, and 2 μl of a mixed solution of ATP and p38 substrate peptide (the final concentration of ATP was 50 μM, and the final concentration of substrate was 0.2 μg/μL) were added successively to a 384-well plate (4514, Corning). After reaction at 27° C. for 2.5 hours, 5 μl of ADP-Glo solution in the kit was added to each well, then the plate was placed at 27° C. for 40 minutes. 10 μl of kinase assay reagent was then added to each well, then the plate was placed at 27° C. for 30 minutes. The chemiluminescence signal values were measured with a Victor 3 (PerkinElmer) multi-function microplate reader. The IC50 values of the compounds on enzyme inhibition were calculated using Graphpad prism software based on each concentration of the compound and the corresponding signal value thereof.

[2] = test system: NIH3T3 cell; assay: Inhibition of NIH3T3 cell proliferation (CellTiter-Glo); assay type: cell-based; details: NIH3T3, 72 hours, 0.5% FBS; for IC50: Mus musculus
Method: The inhibition effect of the compounds of the present invention on NIH3T3 cell proliferation was determined by the following in vitro test.
The inhibition effect of the compounds of the present invention on NIH3T3 cell proliferation was determined by the following experimental method:
On a 96-well white plate with transparent bottom (3903, Corning), 100 μL of NIH3T3 cell (GNM6, Cell Bank of Typical Culture Collection Committee of Chinese Academy of Sciences) was seeded in a DMEM medium containing 10% FBS (SH1-30243.01, GE) in each well. The seeding density is 2000 cells/well. The cells were incubated overnight at 37° C., in 5% CO2. After overnight incubation, each well was replaced with 90 μL of DMEM medium containing 0.5%0 FBS. 10 μl of a 3-fold gradient dilution of the compounds with DMEM medium containing 0.5% FBS was then added, and the plate was incubated for 72 hours in a cell incubator at 37° C., in 5% CO2. Finally, 50 μL of CellTiter-Glo (G7573, Promega) was added to each well. After incubation for 10 minutes at room temperature, the chemiluminescence signal values were measured with a Victor 3 microplate reader (PerkinElmer). The IC50 values of the compounds were calculated using Graphpad Prism software based on each concentration of the compound and the corresponding signal value thereof.

[3] = biological target: RIPK2 kinase (Homo sapiens (Human), UniProt O43353); assay: Inhibition of RIPK2 kinase activity (ADP-Glo kit); assay type: biochemical; details: ATP 50 μM, 27° C. 2.5 hours
Chain of RIPK2 kinase (O43353 whole entry): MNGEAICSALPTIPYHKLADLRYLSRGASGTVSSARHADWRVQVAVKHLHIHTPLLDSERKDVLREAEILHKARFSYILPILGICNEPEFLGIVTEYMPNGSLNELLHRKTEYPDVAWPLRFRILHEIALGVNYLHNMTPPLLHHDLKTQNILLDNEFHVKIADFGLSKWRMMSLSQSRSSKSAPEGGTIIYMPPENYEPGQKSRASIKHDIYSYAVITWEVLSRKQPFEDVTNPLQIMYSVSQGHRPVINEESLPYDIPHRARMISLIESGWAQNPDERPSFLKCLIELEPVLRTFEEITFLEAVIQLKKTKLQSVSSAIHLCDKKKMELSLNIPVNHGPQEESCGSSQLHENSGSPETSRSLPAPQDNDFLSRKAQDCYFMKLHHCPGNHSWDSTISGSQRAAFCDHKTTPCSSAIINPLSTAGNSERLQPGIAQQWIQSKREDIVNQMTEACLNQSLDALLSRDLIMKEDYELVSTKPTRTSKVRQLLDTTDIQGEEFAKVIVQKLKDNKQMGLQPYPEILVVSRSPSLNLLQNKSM
Method: The inhibition of RIPK2 kinase activity in vitro was determined by the following method.
The inhibition effect of the compounds of the present invention on RIPK2 kinase activity was determined by the following experimental method:
RIPK2 kinase assay kit (V4084, Promega) was used to assay enzyme activity. 2 μl of RIPK2 enzyme solution (the final concentration of enzyme in the reaction system was 0.5 ng/μL) formulated with reaction buffer (40 mM Tris pH 7.5, 20 mM MgCl2, 0.1 mg/ml BSA), 1 μl of a 3-fold gradient dilution of Compound 1 dissolved in 5% DMSO, and 2 μl of a mixed solution of ATP and MBP substrate peptide (the final concentration of ATP was 50 μM, and the final concentration of substrate was 0.2 μg/μL) were added successively to a 384-well plate (4514, Corning). After reaction at 27° C. for 2.5 hours, 5 μl of ADP-Glo solution in the kit was added to each well, then the plate was placed at 27° C. for 40 minutes. 10 μl of kinase assay reagent was then added to each well, then the plate was placed at 27° C. for 30 minutes. The chemiluminescence signal values were measured with a Victor 3 (PerkinElmer) multi-function microplate reader. The IC50 values of the compounds for enzyme inhibition were calculated using Graphpad prism software based on each concentration of the compound and the corresponding signal value thereof.

[4] = test system: murine melanoma cell B16-F1 xenograft; assay: Therapeutic effect on B16-F1 xenograft C57 mice; assay type: in vivo
Method: Evaluation of the inhibition effect of the compound of Example 1 on the growth of murine melanoma cell B16-F1 xenograft on C57 mice.
Compound 1 was formulated into a 5 mg/ml aqueous solution using 0.5% CMC-Na+0.25% (v/v) Polysorbate 80. The administration concentration was 50 mg/kg, and the oral volume for intragastrical administration was 10 ml/kg.
Female C57BL/6J mice for laboratory use were purchased from SINO-BRITISH SIPPR/BK LAB. ANIMAL LTD., CO (Shanghai, China, Certificate No.: SCXK (Shanghai) 2008-0016), and the body weight of mice was from 16 to 20 g when purchased. After the animals were purchased, the test was started after 3 days of adaptive feeding. Feeding conditions: SPF grade. Animal feeding method: 12/12 hours light/dark cycle, temperature 23±1° C., humidity 40-50%, the animals were fed with standard sterilized murine feed, and had free access to food and water.
The C57 mice after adaptive feeding were fasted overnight in a metabolic cage, and divided randomly into the following groups after weighing: blank control group and Compound 1 group, 10 mice per group. The skin preparation on the right flank of C57 mice was carried out one day in advance, B16-F1 cells were subcutaneously inoculated ([…] cells per mouse), and administration was started on the third day after inoculation. Each mouse was intragastrically administrated with Compound 1 (i.g., 10 ml/kg) twice a day, and the blank group was intragastrically administrated with the corresponding solvent. The tumor volume was measured twice a week, the body weight was weighed and the data were recorded.
Excel statistical software was used: the average value was calculated by avg; the SD value was calculated by STDEV; the SEM value was calculated as STDEV/SQRT: the difference between the groups P value was calculated by TTEST.
The calculation formula of tumor volume (V) is: V=½×Llength×Lshort^2
Tumor inhibition rate (%)==(C−T)/C (%)
Wherein V0 and VT are the tumor volumes at the beginning of the test and at the end of the test, respectively. C and T are the average tumor volumes of the Blank group and the test group at the end of the test, respectively.

Chain of p38α kinase (Q16539 whole entry): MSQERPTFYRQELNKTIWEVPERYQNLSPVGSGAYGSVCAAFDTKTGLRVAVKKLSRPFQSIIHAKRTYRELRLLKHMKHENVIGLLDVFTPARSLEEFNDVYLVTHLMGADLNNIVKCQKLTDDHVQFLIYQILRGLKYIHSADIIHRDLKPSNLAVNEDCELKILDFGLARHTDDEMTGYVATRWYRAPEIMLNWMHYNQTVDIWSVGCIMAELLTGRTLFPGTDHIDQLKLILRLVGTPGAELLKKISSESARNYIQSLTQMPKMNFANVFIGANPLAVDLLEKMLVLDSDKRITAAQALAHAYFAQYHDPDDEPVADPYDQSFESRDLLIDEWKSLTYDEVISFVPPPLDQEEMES

SMILES | IC50 [1] [nM] | IC50 [2] [nM] | Maximum inhibition rate (%) [2] [%] | IC50 [3] [nM] | Effect on the body weight of the mice ([4]; 50 mg/kg i.g. twice a day) | Tumor volume compared with the blank control group ([4]; Day 19, 50 mg/kg i.g. twice a day) | Average tumor volume d0 ([4]; d0, 50 mg/kg po bid/20d) [mm^3] | Average tumor volume d22 ([4]; d22, 50 mg/kg po bid/20d) [mm^3]
Cc1cccc(-c2nn(C3CC3)cc2-c2ccnc(-c3ccc(S(C)(=O)=O)cc3)c2)n1 [Example 2, 4-(1-Cyclopropyl-3-(6-methylpyridin-2-yl)-1H-pyrazol-4-yl)-2-(4-(methylsulfonyl)phenyl)pyridine] | 1000 | 194 | 107 |  |  |  |  | 
Cc1cccc(-c2nn(C3CCC3)cc2-c2ccnc(-c3ccc(S(C)(=O)=O)cc3)c2)n1 [Example 1, 4-(1-Cyclobutyl-3-(6-methylpyridin-2-yl)-1H-pyrazol-4-yl)-2-(4-(methylsulfonyl)phenyl)pyridine] | 2200 | 88 | 105 | 1200 | no effect | significantly smaller | 0.00 | 301.53
